Values after ≈ are worked out from the molar mass of the structure shown. Where a name gives a salt, the structure may show the parent alone. Read-outs that look alike come from different tables or passages of the source. Residues, ends and D or L forms follow the SMILES beside them.
What was measured:
[1] = test system: S. aureus USA300 (MRSA); experiment: MIC testing, broth microdilution; format: cell-based; conditions: Staphylococcus aureus
Description: (§1) S. aureus strains 8325-4 ([35]) and USA300 ([36]) were used as indicated for the individual experiments. Bacterial cultures were grown in cation-adjusted Mueller-Hinton broth (MHB-II) at the indicated temperature.
(§2) MICs of all tested compounds were determined according to protocols using broth microdilution methodology ([46]), with minor modifications. S. aureus was grown in 10 ml MHB-II overnight at 37°C with shaking and then diluted 1:100 in fresh MHB-II and grown to an OD600 of 0.2 to 0.4. Cultures were then diluted 1:10 and grown to an OD600 of 0.2 to 0.4. These steps were performed to ensure balanced exponentially growing cultures as explained above. Finally, cultures were diluted to 1 × 10^6 CFU ml^−1 and further diluted 1:1 in microtiter plates in MHB-II with drug, leading to a final inoculum of 5 × 10^5 CFU ml^−1. MICs were determined in triplicate, and if more than one value was found, the highest was set as the MIC to keep the calculations conservative.

[2] = test system: MRSA USA300; experiment: Drosophila injection assay, survival of infected flies; format: in vivo, Drosophila melanogaster; conditions: 10× MIC, 3 h postinfection, 96-h period
Description: (§3) Injection assays were performed as previously described ([33]) by using a Nanoject-II microinjecter, but with minor modifications in the preparation of bacterial inoculums to obtain balanced cultures, as explained above. Flies were reared on standard Bloomington formulation at 25°C under a 12-h–12-h light-dark cycle and constant humidity. Adult Oregon R male flies (4 to 7 days old) were used for all injection experiments. Initial experiments with strain 8325-4 were performed in duplicate, with groups of 25 to 30 animals in each experiment. For USA300, experiments were performed in triplicate, except for the nisin experiment, which was done only in duplicate. The inoculum was prepared by resuspending cells in 10 mM MgSO4 vehicle (VEH) to an OD600 of 0.06 and was kept on ice, giving an inoculum dose of 100 to 450 CFU (8325-4) or 200 to 700 CFU (USA300) in the flies after injection of 18.4 nl. […] After injection of bacteria, flies were kept at 29°C and monitored for 48 to 96 h to determine mortality. […] It is important that when drug concentrations were calculated, we performed a rough approximation of the fluid content of a fly. Fly fluid content was measured by drying out 10 groups of 50 flies each and comparing dry weight to wet weight. […]

[3] = test system: Drosophila melanogaster; experiment: Survival of uninfected control flies injected with VEH and drug; format: in vivo
Description: Injection assays were performed as previously described ([33]) by using a Nanoject-II microinjecter, but with minor modifications in the preparation of bacterial inoculums to obtain balanced cultures, as explained above. Flies were reared on standard Bloomington formulation at 25°C under a 12-h–12-h light-dark cycle and constant humidity. Adult Oregon R male flies (4 to 7 days old) were used for all injection experiments. Initial experiments with strain 8325-4 were performed in duplicate, with groups of 25 to 30 animals in each experiment. For USA300, experiments were performed in triplicate, except for the nisin experiment, which was done only in duplicate. The inoculum was prepared by resuspending cells in 10 mM MgSO4 vehicle (VEH) to an OD600 of 0.06 and was kept on ice, giving an inoculum dose of 100 to 450 CFU (8325-4) or 200 to 700 CFU (USA300) in the flies after injection of 18.4 nl. Bacterial and VEH injections were administered in the soft tissue surrounding the front legs, and drug treatment was administered in the lower thorax at 3 h postinfection. After injection of bacteria, flies were kept at 29°C and monitored for 48 to 96 h to determine mortality. Drug delivery was performed at the concentrations indicated for individual experiments. Flies which died within 3 h postinjection were considered to have died from handling and were disregarded. It is important that when drug concentrations were calculated, we performed a rough approximation of the fluid content of a fly. Fly fluid content was measured by drying out 10 groups of 50 flies each and comparing dry weight to wet weight. […] For simplicity and because we assumed that the compounds would not be distributed to all fluids, we used 0.5 μl fluid as our measure for calculating drug concentrations in the flies. Further, we assumed a rapid distribution of the compound in the open circulatory system of Drosophila and a slow clearance of the compounds by Malpighian tubules. Therefore, drug concentrations are given as the highest concentrations obtained, in multiples of the MIC.
Plotting of data was performed using GraphPad Prism 5. All in vivo survival plots were created using Kaplan-Meier analysis of pooled data for repetitive experiments. Statistical analysis was carried out with the log rank (Mantel-Cox) test for comparison of survival curves. Experiments with P values of <0.05 were considered to be significant and are stated in Results. Statistical analysis was performed on the counts of CFU per fly for the different treatment groups by using one-way analysis of variance (ANOVA) (Kruskal-Wallis test) with Dunn's multiple-comparison test for comparison of individual groups. Relevant statistical results are stated in Results.

[4] = test system: S. aureus USA300; experiment: Bacterial titers (CFU per fly) after treatment; format: in vivo, Drosophila melanogaster; conditions: USA300-infected flies, treatment 3 h postinfection
Description: The growth rates of S. aureus strains were examined at 37°C in vitro to determine the growth period required to obtain balanced cultures, here defined as cultures grown exponentially for no fewer than 6 generations. Prior to injection of bacteria into the in vivo fly model, the inoculums were prepared as balanced cultures grown at 37°C. Since flies used for in vivo infections were kept at 29°C, the bacterial in vitro generation time was also determined at this temperature. In vitro growth rates were defined for growth in MHB-II by measurements of the optical density at 600 nm (OD600) at 10-min intervals. Furthermore, we determined the in vivo generation time based on CFU per animal by counting the CFU at various time points by homogenizing flies infected with bacteria and plating the homogenates on mannitol salt agar (MSA). This was performed in triplicate experiments; 3 individual flies were crushed in phosphate-buffered saline (PBS), and 10× dilution series were prepared, from which 10 μl each was spot plated on MSA in triplicate. The mean value for each experiment was determined as the number of CFU per fly and plotted. […] It should also be noted that drug treatment was performed at 3 h postinfection and that the number of CFU per fly for this time point was determined prior to treatment. […]

[5] = test system: S. aureus 8325-4; experiment: microbe, parasite or virus in culture; format: cell-based, Staphylococcus aureus
Description: as §1, §2

[6] = test system: S. aureus 8325-4; experiment: Drosophila injection assay, survival of infected flies; format: in vivo, Drosophila melanogaster; conditions: >1,000× MIC, injection 3 h postinfection, 70-h period
Description: as §3

[7] = test system: Drosophila melanogaster; experiment: Adverse behavioral response (paralysis) after injection; format: in vivo; conditions: flies injected with high concentrations (data not shown); uncoordinated movements, inability to walk or fly
Description: as §3

[8] = at the concentrations tested, not given
[9] = 8325-4, read-out: MIC (μM) 8325-4
[10] = broth microdilution, MHB-II, final inoculum 5 × 10^5 CFU ml^−1, triplicate, highest value set as MIC
[11] = calculated from MIC in μg ml^−1 with the mol wt of the table, read-out: MIC (μM) 8325-4

Compound | Effect on survival of control animals [3, 8] | MIC (μg ml^−1) 8325-4 ([5]; 8325-4) | MIC [5, 9] | MIC (μg ml^−1) 8325-4 [5, 10] | MIC [5, 11] | Adverse behavioral response that may indicate neurotoxicity [7] | other results
CN[C@H](CC(C)C)C(=O)N[C@H]1C(=O)N[C@@H](CC(N)=O)C(=O)N[C@H]2C(=O)N[C@H]3C(=O)N[C@H](C(=O)N[C@H](C(=O)O)c4cc(O)cc(O)c4-c4cc3ccc4O)[C@H](O)c3ccc(c(Cl)c3)Oc3cc2cc(c3O[C@@H]2O[C@H](CO)[C@@H](O)[C@H](O)[C@H]2O[C@H]2C[C@](C)(N)[C@H](O)[C@H](C)O2)Oc2ccc(cc2Cl)[C@H]1O [Vancomycin, vancomycin hydrochloride] | no adverse effect on survival of control animals |  |  |  |  |  | MIC ([1]; read-out: MIC (μM) USA300): 1.38 µM; MIC ([1]; read-out: MIC (μg ml^−1) USA300): 2 µg/mL; Survival of USA300-infected animals compared with NAI-107 at 100× MIC [2]: equivalent; Bacterial load compared to that with nisin treatment after 24 h [4]: significantly reduced the bacterial load; Proliferation of bacteria inside the animals ([4]; CFU per fly at 0, 3, 12, 24 h on MSA): clearly disrupted the proliferation of bacteria
N=C(N)NCCC[C@H](NC(=O)[C@H](CCCNC(=N)N)NC(=O)[C@H](Cc1c[nH]c2ccccc12)NC(=O)[C@H](Cc1c[nH]c2ccccc12)NC(=O)[C@H](CCCCN)NC(=O)[C@H](Cc1c[nH]c2ccccc12)NC(=O)[C@H](Cc1c[nH]c2ccccc12)NC(=O)[C@H](CCCNC(=N)N)NC(=O)[C@@H](N)CCCCN)C(N)=O [HHC-36] (H-KRWWKWWRR-NH2) | no obvious detrimental effects on survival | 8 µg/mL (≈ 5.38 µM) | 5.38 µM |  |  |  | 
CC(C)C[C@H](NC(=O)[C@H](Cc1c[nH]c2ccccc12)NC(=O)[C@H](Cc1c[nH]c2ccccc12)NC(=O)[C@H](CCCCN)NC(=O)[C@H](Cc1c[nH]c2ccccc12)NC(=O)[C@H](CCCNC(=N)N)NC(=O)[C@H](CCCNC(=N)N)NC(=O)[C@H](Cc1c[nH]c2ccccc12)NC(=O)[C@@H](N)CCCNC(=N)N)C(N)=O [HHC-9] (H-RWRRWKWWL-NH2) | no obvious detrimental effects on survival | 4 µg/mL (≈ 2.72 µM) | 2.71 µM |  |  |  | 
CC1(C)S[C@@H]2[C@H](NC(=O)[C@H](N)c3ccccc3)C(=O)N2[C@H]1C(=O)O [Ampicillin, Ampicillin sodium salt, reference compound] |  |  |  |  |  |  | MIC ([5]; Staphylococcus aureus, 83254, broth microdilution, MHB-II, final inoculum 5 × 10^5 CFU ml^−1, triplicate, highest value set as MIC, read-out: MIC (μg ml^−1) 8325-4): 0.01 µg/mL; MIC ([5]; Staphylococcus aureus, 83254, calculated from MIC in μg ml^−1 with the mol wt of the table, read-out: MIC (μM) 8325-4): 2.86 µM; Effect on survival of 8325-4-infected flies [6]: efficiently promoted survival; Effect on survival of control animals ([3]; >1,000× MIC, 70-h period): no lethal effects on control animals
CC(C)C[C@H](NC(=O)[C@H](Cc1c[nH]c2ccccc12)NC(=O)[C@H](CCCNC(=N)N)NC(=O)[C@H](Cc1c[nH]c2ccccc12)NC(=O)[C@H](Cc1c[nH]c2ccccc12)NC(=O)[C@H](CCCCN)NC(=O)[C@H](CCCCN)NC(=O)[C@H](Cc1c[nH]c2ccccc12)NC(=O)[C@@H](N)CCCNC(=N)N)C(N)=O [GN-4] (H-RWKKWWRWL-NH2) |  |  |  | 4 µg/mL (≈ 2.77 µM) | 2.77 µM | partially paralyzed for up to 10 h postinjection | Effect on survival of control animals ([3]; 10× MIC in fly, compared with VEH-injected flies): no detrimental effects on survival of flies
CC[C@H](C)[C@H](NC(=O)[C@H](Cc1c[nH]c2ccccc12)NC(=O)[C@H](CCCNC(=N)N)NC(=O)[C@H](Cc1c[nH]c2ccccc12)NC(=O)[C@H](Cc1c[nH]c2ccccc12)NC(=O)[C@H](CCCNC(=N)N)NC(=O)[C@H](CCCCN)NC(=O)[C@H](Cc1c[nH]c2ccccc12)NC(=O)[C@@H](N)CCCNC(=N)N)C(N)=O [GN-2] (H-RWKRWWRWI-NH2) |  |  |  | 8 µg/mL (≈ 5.44 µM) | 5.43 µM | partially paralyzed for up to 10 h postinjection | 
